Experimental data from patent US4518611A, “2-Furylbutyrolactone modulation of the immune system in mammals” (priority 1983, dated 1985).
Values joined by “and” are separate entries in the source; they are usually repeats but may differ in a detail not shown here. Equal entries are not always repeated. Where two headings read alike, the source gives them in different places.

Experiments:
L-1210 leukemia cells = assay: Treatment of L-1210 leukemia in BDF1 mice (T/C ratios); type: in vivo, mouse
Source text: Mice of the BDF1 strain are given in i.p. inoculation of 10^6 L-1210 leukemia cells on day 0. Twenty-four hours later, groups of 7 mice each are started on a nine day treatment regimen of various doses of the compounds of this invention. The experiment is continued according to the guidelines provided under the National Cancer Institute protocol for screening new anti-cancer agents and T/C ratios (median or mean survival time of treated groups over median or mean survival time of controls) are calculated. A T/C value ≥1.25 (or 125%) is considered significant anticancer activity.
(§1) Mice of the BDF1 strain, inoculated with L-1210 leukemia cells, are treated for seven days with either 25, 50, 100, 200 or 400 mg/kg of Cpd. 1 or just buffer. The National Cancer Institute protocol for screening new anti-cancer agents is followed and T/C ratios are calculated.
as §1, with “either 100” for “either 25, 50, 100, 200 or 400”, “Cpd. 1, 20 mg/kg of 5-flourouracil (5-FU), a known anti-cancer agent,” for “Cpd. 1”

spleen lymphocytes [1] = conditions: for stimulation of DNA synthesis (in words): BSA
Source text: (§2) The effect of the compounds of this invention on the immune response to specific antigens involves immunization of mice with specific antigens such as bovine serum albumin (BSA) or keyhole limpet hemocyanin (KLH). Following immunization, it is possible to assess the cell-mediated or humoral (antibody) immune response to these antigens by various methods:
(1) Lymphocyte stimulation assays can be performed using varying concentrations of the specific antigens as mitogens in the lymphocyte stimulation microculture system described above. The only difference is that the incubation period is extended to five days instead of three as for the polyclonal mitogens.
Mice of the C57BL/6 strain are given i.p. injections of either 50, 100, 200 or 400 mg/kg of Cpd. 1 or buffer for twelve days (days 1-12). An antigen, bovine serum albumin (BSA), is administered intraperitoneally with Freund's Complete Adjuvant (FCA) on days 1, 7 and 14. Blood samples are taken for assay of the antibody response on days 0, 5, 13, and 19.

KLH antibody response = conditions: for increase of antibody titer over control (fold): 200 and 400 mg/kg
Source text: as §2
(2) Antibody response to soluble antigens such as BSA or KLH can be quantitated using a micro-ELISA solid phase heterogeneous immunoassay. The assay can be designed to quantitate class specific immunoglobulins (i.e., IgG or IgM).
Mice of the C57BL/6 strain are given i.p. injections of either 50, 100, 200 or 400 mg/kg of Cpd. 1 or buffer for ten days (days 1-10). An antigen, keyhole limpet hemocyanin (KLH), is administered intraperitoneally with Freund's Complete Adjuvant (FCA) on days 1, 7, and 13. Blood samples are taken for assay of the antibody response on days 0, 5, 12, and 17. Spleens are removed, lymphocytes isolated and a lymphocyte stimulation assay with PHA, Con-A or KLH antigen as the mitogens is performed on day 17 of the experiment.

spleen lymphocytes [2] = conditions: 4 days
Description: The purpose of this assay is to challenge lymphocytes in microcultures with one or more polyclonal mitogens at concentrations that will induce mitogenesis within 72 hours of stimulation.
In the mouse model, spleens are removed from different strains of mice and the spleen cells are teased free and suspended in RPMI-1640 tissue culture medium at a concentration of usually […]. These cells are dispensed at a concentration of 5.0×10^5 cells per microculture well in a 96 well flat bottom 96 well tissue culture plate. All testing of the compounds of this invention or mitogens are done in replicates of 10. The cells are then treated with PHA, Con-A, specific antigens, or buffer only. If in vitro testing is done, varying concentrations of the compounds of this invention or buffer only are added to the cells as well. After treatment with the mitogens and/or compounds of this invention, the cells are incubated for 72 hours. The response of these cells to mitogens and/or the compounds of this invention is assessed using ^14 C-thymidine labeling on the fourth day at a concentration of 0.01 μCi/well. The labeled cells are harvested using a lymphocyte harvestor and placed onto fibrous paper discs. A scintillation cocktail is added to vials containing the discs and the results are obtained using a LKB-liquid scintillation counter (Model 1216/Rackbeta II). The data is expressed as a ratio of the cpm of the mitogen stimulated group to the control (nonmitogen) treated group=lymphocyte stimulation index (LSI).
The lymphocyte stimulation assay may be performed directly on spleen cells obtained from various strains of mice not treated with the compounds of this invention or on lymphocytes obtained from human […]. […] Alternatively, the mice may be treated in vivo with the compounds of this invention by intraperitoneal multi-dose schedules, followed by sacrifice and harvesting spleen lymphocytes. These cells are then tested for their response to polyclonal mitogens or specific antigens used to immunize the mice. In this system however, no additional compound is added to the in vitro lymphocyte stimulation assay system.
Two strains of mice, C57BL/6 and BALB/c, are treated 4 days with i.p. administration of either 50, 100, 200, or 400 mg/kg of Cpd. 1, or just buffer. This is followed on the fifth day by a lymphocyte stimulation assay.

## Cc1ccc(C2(O)C(=O)OC3C(O)COC32O)o1.Cc1ccc(C2(O)C(=O)OC3C(O)COC32O)o1.O=C1CCC(=O)O1 (centres unmarked) [Cpd. 1, 2-furylbutyrolactone:succinic anhydride]
L-1210 leukemia cells; 25 mg/kg, seven days
  Median Survival Time: 20 days
  T/C: 1.00
L-1210 leukemia cells; 50 mg/kg, seven days
  Median Survival Time: 21 days
  T/C: 1.05
L-1210 leukemia cells; 100 mg/kg, seven days
  Median Survival Time: 30 days
  T/C: 1.50 and 1.40
L-1210 leukemia cells; 100 mg/kg, seven days (Table 25)
  Median Survival Time: 28
L-1210 leukemia cells; 200 mg/kg, seven days
  Median Survival Time: 30 days
  T/C: 1.50
L-1210 leukemia cells; 400 mg/kg, seven days
  Median Survival Time: 25 days
  T/C: 1.25
Spleen lymphocytes [1]; 50 mg/kg, BSA 0 μg/well, Day 19
  Lymphocyte Stimulation Index: .26
Spleen lymphocytes [1]; 50 mg/kg, day 19
  stimulation of DNA synthesis (in words): This effect has waned by day 19
Spleen lymphocytes [1]; 100 mg/kg, BSA 0 μg/well, Day 19
  Lymphocyte Stimulation Index: 4.1
Spleen lymphocytes [1]; 100 mg/kg, BSA 0.01 μg/well, Day 13
  Lymphocyte Stimulation Index: 9.8
Spleen lymphocytes [1]; 100 mg/kg, BSA 1.0 μg/well, Day 19
  Lymphocyte Stimulation Index: .26
Spleen lymphocytes [1]; 200 mg/kg, BSA 0 μg/well, Day 19
  Lymphocyte Stimulation Index: 0.42
Spleen lymphocytes [1]; 200 mg/kg, BSA 1 μg/well, Day 13
  Lymphocyte Stimulation Index: 14.0
Spleen lymphocytes [1]; 400 mg/kg, BSA 0 μg/well, Day 19
  Lymphocyte Stimulation Index: 5.0
Spleen lymphocytes [1]; day 13
  stimulation of DNA synthesis (in words): Only the 50 mg/kg dose shows significant stimulation of DNA synthesis on day 13 compared to controls
KLH antibody response; 50 mg/kg i.p., Day 5
  Micro-ELISA Titer: N/R
KLH antibody response; 50 mg/kg i.p., Prebleed
  Micro-ELISA Titer: N/R
KLH antibody response; 100 mg/kg i.p., Day 5
  Micro-ELISA Titer: N/R
KLH antibody response; 100 mg/kg i.p., Prebleed
  Micro-ELISA Titer: N/R
KLH antibody response; 200 mg/kg i.p., Day 5
  Micro-ELISA Titer: N/R
KLH antibody response; 200 mg/kg i.p., Prebleed
  Micro-ELISA Titer: N/R
KLH antibody response; 400 mg/kg i.p., Day 5
  Micro-ELISA Titer: N/R
KLH antibody response; 400 mg/kg i.p., Prebleed
  Micro-ELISA Titer: N/R
KLH antibody response; day 12
  increase of antibody titer over control (fold): four-fold
KLH antibody response; day 17
  increase of antibody titer over control (fold): eight-fold
Spleen lymphocytes [2]; 50 mg/kg i.p.
  Lymphocyte Stimulation Index, Con-A: 20.5
  Lymphocyte Stimulation Index, Control (no mitogen): 1.4
  Lymphocyte Stimulation Index, PHA: 6.44
Spleen lymphocytes [2]; 100 mg/kg i.p.
  Lymphocyte Stimulation Index, Con-A: 21.8
  Lymphocyte Stimulation Index, Control (no mitogen): 1.0
  Lymphocyte Stimulation Index, PHA: 5.24
Spleen lymphocytes [2]; 200 mg/kg i.p.
  Lymphocyte Stimulation Index, Con-A: 20.5
  Lymphocyte Stimulation Index, Control (no mitogen): .76
Spleen lymphocytes [2]; 400 mg/kg i.p.
  Lymphocyte Stimulation Index, Con-A: 18.7
  Lymphocyte Stimulation Index, Control (no mitogen): .90
  Lymphocyte Stimulation Index, PHA: 6.71
